Several values for one entry are separate records, joined by “and”; a condition that tells them apart may be missing. Equal values may be shown once.
Experiments:
Type in all cases: biochemical
[1] = test system: peroxidase; experiment: Peroxidase assay in saliva (Amplex Red); conditions: 500 ppm; pooled or unpooled saliva; 30 minutes; FIGS. 26-29
Description: To determine the effect of various GRAS compounds as inhibitors of peroxidase activity, a standard assay using Amplex® Red (Life Technologies), which releases a fluorescent oxidation product.
The test compounds, such as GRAS materials or cocktails of same, were prepared at a concentration of 500 ppm in distilled water. For the assay, 50 μl samples of test compounds were mixed with 20-30 μl of saliva (either “pooled” or “unpooled”) prior to the addition of Amplex® Red. […] Reactions were allowed to run for 30 minutes during these assays.

[2] = biological target: T1, Lysozyme (Homo sapiens, UniProt P61626); experiment: Lysozyme inhibition saliva screening (fluorescein-labeled Micrococcus lysodeikticus); conditions: 100% saliva samples (data not shown)
T1 sequence (P61626 19-148): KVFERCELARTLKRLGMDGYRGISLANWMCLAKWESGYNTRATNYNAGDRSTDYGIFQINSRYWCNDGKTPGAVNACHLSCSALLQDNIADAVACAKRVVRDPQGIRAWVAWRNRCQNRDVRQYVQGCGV
Description: Further details of these five compounds may also be seen in Table 5.

[3] = biological target: T2, α-amylase (Homo sapiens, UniProt P0DUB6); experiment: α-Amylase inhibition saliva screening (chromogenic substrate, 405 nm); conditions: for Ave (absorbance at 405 nm) / individual reading (absorbance at 405 nm): saliva; for Ave (absorbance at 405 nm): 5,000 ppm; for individual reading (absorbance at 405 nm): test compound prepared at 5,000 ppm, 37° C.; for α-Amylase inhibition: 100% saliva samples, FIG. 11
T2 sequence (P0DUB6 16-511): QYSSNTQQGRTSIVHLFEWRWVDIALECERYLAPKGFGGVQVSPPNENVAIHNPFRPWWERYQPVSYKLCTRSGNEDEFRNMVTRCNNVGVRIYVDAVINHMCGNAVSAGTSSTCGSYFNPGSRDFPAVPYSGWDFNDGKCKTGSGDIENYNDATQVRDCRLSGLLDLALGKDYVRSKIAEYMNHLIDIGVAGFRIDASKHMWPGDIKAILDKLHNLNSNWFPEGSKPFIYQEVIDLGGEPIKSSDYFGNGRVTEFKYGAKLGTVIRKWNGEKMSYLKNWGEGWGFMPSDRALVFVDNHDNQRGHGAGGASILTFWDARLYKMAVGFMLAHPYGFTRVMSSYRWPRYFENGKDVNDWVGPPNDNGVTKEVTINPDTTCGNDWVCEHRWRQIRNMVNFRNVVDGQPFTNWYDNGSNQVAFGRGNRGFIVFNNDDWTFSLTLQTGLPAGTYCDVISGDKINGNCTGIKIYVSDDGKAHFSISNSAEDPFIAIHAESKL
Description: Further details of these five compounds may also be seen in Table 4.

Compound: Cn1c(=O)c2c(ncn2C)n(C)c1=O [CDI-33, Caffeine]
- peroxidase inhibition [1]: showed significant peroxidase inhibition capabilities

Compound: COc1ccc(O)c(C(C)(C)C)c1 [CDI-39, 3-tert--butyl-hydroxyanisole]
- peroxidase inhibition [1]: showed significant peroxidase inhibition capabilities

Compound: O=C(O)c1ccccc1 [CDI-40, Benzoic acid]
- Lysozyme inhibition [2]: shown to inhibit Lysozyme

Compound: Aluminum potassium sulfate dodecahydrate [CDI-42]
- peroxidase inhibition [1]: showed significant peroxidase inhibition capabilities
- Ave (absorbance at 405 nm) ([3]; 0 min): 0.92
- individual reading (absorbance at 405 nm) ([3]; 0 min): 0.80 and 1.13 and 0.90 and 0.84
- α-Amylase inhibition [3]: shown to inhibit α-Amylase
- individual reading (absorbance at 405 nm) ([3]; 5 min): 1.65 and 2.15 and 1.80 and 1.81
- individual reading (absorbance at 405 nm) ([3]; 15 min): 2.37 and 2.38 and 2.25 and 2.17

Compound: Aluminum sulfate hydrate [CDI-34]
- Ave (absorbance at 405 nm) ([3]; 0 min): 0.40
- individual reading (absorbance at 405 nm) ([3]; 0 min, sulfate hydrate): 0.40 (2×) and 0.36 and 0.45
- α-Amylase inhibition [3]: shown to inhibit α-Amylase
- Ave (absorbance at 405 nm) ([3]; 5 min): 0.50
- individual reading (absorbance at 405 nm) ([3]; 5 min, sulfate hydrate): 0.49 and 0.50 (2×) and 0.52
- Ave (absorbance at 405 nm) ([3]; 15 min): 0.56
- individual reading (absorbance at 405 nm) ([3]; 15 min, sulfate hydrate): 0.53 and 0.61 and 0.54 and 0.56
